Experimental data: patent US20240300940A1, “Phenothiazinyl Compounds and Uses” (Prosetta Biosciences, Inc., priority 2023, published 2024)

Assays:
Hennes-20 cells = experiment: Hennes-20 oncology screen; assay type: cell-based; settings: 72 h, alamar Blue
Method: To screen compounds for oncology activity Hennes-20 cells were plated at low (500 cells/well) versus high (15,000 cells/well) densities and treated with DMSO (vehicle) or dose-titration of compounds. The rationale for this screen is that an intrinsically toxic compound should kill cells regardless of density, including in Hennes-20 cells. However, a compound that selectively triggers the arrest of proliferation will inhibit cell growth when plated at a low density will appear cytotoxic due to inhibition of cell growth when plated at a low density but will appear non-toxic to cells plated at a high density where the cells are approaching confluence and the readout detected by a cell viability assay is already close to the maximum.
To conduct the Hennes-20 screen, two 96 well plates were seeded with Hennes 20 cells in parallel where one was plated at a density of 500 cells/well and the other was plated at a density of 15,000 cells/well. 90 uL of minimum essential media was added to each well and plates were placed in a 37 degrees Celsius incubator for 24 hours. The next day, 10 ul of media containing dilutions of compound in DMSO were added to each plate. Six wells on each plate received 10 ul of media containing only DMSO. Each well was gently mixed 5 times with a 100 ul pipette. Plates were incubated at 37 degrees Celsius for 72 hours and then 10 uL of alamar Blue was added to each well. Wells were mixed 5 times then incubated at 37 degrees Celsius for […]. Plates were then read at 530/590.
The rationale for the screen is as follows: Hennes-20 cells lack endogenous apoptosis. Cells plated at low density will proliferate and approach confluence in 72 hrs. A drug that arrests proliferation may have its proliferation blocking effect masked by the triggering of endogenous apoptosis. However, in the Hennes line, lacking endogenous apoptosis, such an arrest is manifest as a dose-dependent maintenance at low cell density. Since the high-density cells are plated close to confluence, the difference between Alamar Blue cell survival readings after 72 hrs reflects the ability of the drug to block proliferation in the low density-plated cells. In the high density-plated cells any diminution of Alamar Blue readout vs vehicle control is due to intrinsic toxicity, not proliferation arrest, since cells were already at confluence. Thus, a compound that appears toxic (low Alamar Blue readings after 72 hrs) on the low-density plate, but which appears non-toxic (high Alamar Blue readings after 72 hrs) on the high-density plate, must be arresting proliferation, since intrinsic compound toxicity should be observed at both low and high cell densities, not selectively on the low-density plate.

NL4-3 Rluc virus = experiment: microbe, parasite or virus in culture; assay type: cell-based, HIV; settings: MT-2 cells, MOI 0.02, 96 hours
VACV-LUC virus = experiment: microbe, parasite or virus in culture; assay type: cell-based; settings: Orthopoxvirus vaccinia, HeLa, 2 h
E. coli ATCC25922 = experiment: MIC assay, serial dilution; settings: for MIC: Escherichia coli, ATCC25922, read-out: Anti-bacterial Activity (E. coli MIC (uM)), E. coli, Table 5
RABV ERA strain = experiment: organism not typed; assay type: cell-based
[1] = Human immunodeficiency virus 1, NL43, MT2, 96 h

Question: For `CCc1cc(N(C)C)cc2[s+]c3cc(N4CCCC4)cc(CC)c3nc12` [Compound 36], which EC50 (Hennes-20 cells) is on record?
Answer: Its EC50 is less than 500 nM.

Question: What about the EC50 (NL4-3 Rluc virus; [1]) of the same compound?
Answer: The EC50 was 7.6 nM.

Question: And the EC50 (VACV-LUC virus)?
Answer: Its EC50 is less than 1670 nM.

Question: And the MIC (E. coli ATCC25922)?
Answer: Its MIC is 1.6 µM.

Question: For `CCc1cc(N2CCCC2)cc2[s+]c3cc(N4CCCC4)cc(C)c3nc12` [Compound 45], which EC50 (Hennes-20 cells) is on record?
Answer: Its EC50 is less than 2500 nM.

Question: And the EC50 (NL4-3 Rluc virus; [1])?
Answer: Its EC50 is 3.1 nM.

Question: And the EC50 (VACV-LUC virus)?
Answer: Its EC50 is less than 1670 nM.

Question: What about the MIC (E. coli ATCC25922) of the same compound?
Answer: Its MIC is 0.8 µM.

Question: What does the source list for `CCc1cc(N2CCCC2)cc2[s+]c3cc(N4CCCC4)cc(C(C)C)c3nc12` [Compound 46]?
Answer: EC50 (Hennes-20 cells): < 500 nM; EC50 (NL4-3 Rluc virus; [1]): 3 nM; EC50 (RABV ERA strain): < 5 nM; Anti-bacterial Activity (E. coli MIC (uM)) (E. coli ATCC25922; E. coli, Table 5): 3.1 µM

Question: Which EC50 (NL4-3 Rluc virus; [1]) does the source give for `CCc1cc(N2CCCC2)cc2[s+]c3cc(N4CCC(C)C4)cc(C)c3nc12` (stereo not drawn) [Compound 57] here?
Answer: The EC50 was 17000 nM.

Question: And the MIC (E. coli ATCC25922)?
Answer: The MIC was 12.5 µM.

Question: With `Cc1cc(C(C)C)cc2[s+]c3cc(N(C)C)cc(C)c3nc12` [Compound 59] as the compound, how does the EC50 (Hennes-20 cells) read?
Answer: Its EC50 is less than 500 nM.

Question: What about the EC50 (VACV-LUC virus) of the same compound?
Answer: Its EC50 is 560 nM.

Question: `CN(C)c1ccc2nc3c(C(C)(C)C)cc(N(C)C)cc3[s+]c2c1` [Compound 66] was tested. Which EC50 (Hennes-20 cells) did it give?
Answer: Its EC50 is less than 500 nM.

Question: And the EC50 (VACV-LUC virus)?
Answer: The EC50 was 1670 nM.

Question: For `c1cc2nc3ccc(N4CCCC4)cc3[s+]c2cc1N1CCCC1` [Compound 68], which EC50 (Hennes-20 cells) is on record?
Answer: Its EC50 is less than 500 nM.

Question: And the EC50 (NL4-3 Rluc virus; [1])?
Answer: Its EC50 is 42 nM.

Question: What about the EC50 (VACV-LUC virus) of the same compound?
Answer: The EC50 was less than 560 nM.

Question: What about the MIC (E. coli ATCC25922) of the same compound?
Answer: The MIC was 6.3 µM.

Question: `CCc1cc(NC(C)C)cc2[s+]c3cc(N4CCCN(C(=O)OC(C)(C)C)CC4)cc(CC)c3nc12` [Compound 69] was tested. Which EC50 (Hennes-20 cells) did it give?
Answer: The EC50 was less than 500 nM.

Question: What about the EC50 (VACV-LUC virus) of the same compound?
Answer: Its EC50 is less than 5000 nM.

Question: Which results are given for `CCc1cc(N2CCCC2)cc2[s+]c3cc(N(C)C)cc(C(C)C)c3nc12` [Compound 73]?
Answer: EC50 (Hennes-20 cells): 500 nM; EC50 (NL4-3 Rluc virus; [1]): 1.8 nM; EC50 (VACV-LUC virus): 1670 nM; EC50 (RABV ERA strain): < 500 nM; MIC (E. coli ATCC25922): 100 µM

Question: With `CCc1cc(N2CCCCCC2)cc2[s+]c3cc(N(C)C4CCNCC4)cc(CC)c3nc12` [Compound 77] as the compound, how does the EC50 (Hennes-20 cells) read?
Answer: Its EC50 is less than 2500 nM.

Question: And the EC50 (VACV-LUC virus)?
Answer: Its EC50 is 1670 nM.

Question: And the MIC (E. coli ATCC25922)?
Answer: The MIC was 3.1 µM.

Question: How did the EC50 (Hennes-20 cells) turn out when `CCc1cc(N(C)C)cc2[s+]c3cc(N4CCCNCC4)cc(CC)c3nc12` [Compound 83] was run?
Answer: The EC50 was less than 12500 nM.

Question: What about the EC50 (NL4-3 Rluc virus) of the same compound?
Answer: Its EC50 is 270 nM.

Question: And the EC50 (VACV-LUC virus)?
Answer: The EC50 was 1670 nM.

Question: What about the EC50 (RABV ERA strain) of the same compound?
Answer: Its EC50 is less than 500 nM.

Question: What about the MIC (E. coli ATCC25922) of the same compound?
Answer: Its MIC is 100 µM.

Question: `CCc1cc(N2CCNCC2)cc2[s+]c3cc(N4CCNCC4)cc(C)c3nc12` [Compound 92] was tested. Which EC50 (Hennes-20 cells) did it give?
Answer: The EC50 was greater than 12500 nM.

Question: What about the EC50 (NL4-3 Rluc virus; [1]) of the same compound?
Answer: The EC50 was 4300 nM.

Question: What does the source list for `CCc1cc(N2CCOCC2)cc2[s+]c3cc(N4CCOCC4)cc(C)c3nc12` [Compound 97]?
Answer: EC50 (NL4-3 Rluc virus; [1]): 230 nM; MIC (E. coli ATCC25922): 25 µM

Question: How did the EC50 (NL4-3 Rluc virus; [1]) turn out when `CCc1cc(N2CCSCC2)cc2[s+]c3cc(N4CCSCC4)cc(C)c3nc12` [Compound 99] was run?
Answer: The EC50 was 26000 nM.

Question: And the MIC (E. coli ATCC25922)?
Answer: Its MIC is 6.3 µM.

Question: Which results are given for `CCc1cc(N2CCC(N)CC2)cc2[s+]c3cc(N4CCCCC4)cc(C)c3nc12` [Compound 100]?
Answer: EC50 (NL4-3 Rluc virus; [1]): 33000 nM; MIC (E. coli ATCC25922): 25 µM
